The record followed here is patent US12558339B2, “Composition comprising (7S)-(+)-cyclopentyl carbarmic acid, 8,8-dimethyl-2-oxo-6,7-dihydro-2H,8H-pyrano[3,2-g]chromen-7-yl-ester as active ingredient for prevention, alleviation, or treatment of eye disease” (INSPHARMTECH INC., priority 2021, dated 2026).

The test system of data set [1] is vascular endothelial growth factor (VEGF) in human retinal pigment epithelial cells (ARPE-19 cells). The data set is described as follows: Western blotting of VEGF level in ARPE-19 cells. Format: cell-based. As to conditions: FIG. 1B. The procedure: (§1) ARPE-19 cells (RID: CVCL 0145) and L-Wnt3a cells (RID: CVCL 0635) were acquired from American Type Culture Collection (ATCC) and cultured in a DMEM medium supplemented with 10% fetal bovine serum (FBS), 120 μg/mL penicillin and 200 μg/mL streptomycin. Human umbilical vein endothelial cells (HUVECs, RID: CVCL 2959) were purchased from CEFO (Cell Engineering for Origin) and cultured using an optimized medium (CEFOgro-HUVEC). Wnt3a-CM (Wnt3a-conditioned medium) was prepared using L-Wnt3a cells that secrete the Wnt-3a protein into the medium. First, the cells were cultured for 4 days and the medium was recovered and replaced with a fresh medium. After culturing for 3 days, the medium was recovered. The two media were combined and used after passing through a 0.22-μm filter. All the cells were cultured in a cell incubator under the condition of 37° C. and 5% CO2.
Whole cell proteins were obtained using a RIPA buffer. After treating the cells with an appropriate amount of a RIPA buffer supplemented with 1× protease inhibitor, the cells were reacted on ice while vortexing once every 10 minutes. After centrifuging at 13,000 rpm and at 4° C. for 10 minutes and quantifying the obtained supernatant by BRADFORD™ assay, […] of proteins were separated according to molecular weight through electrophoresis. […]
In general terms: A western blot detects proteins with antibodies after separation by electrophoresis.

Data set [2] relates to choroidal neovascularization (CNV)-induced rabbit model. Kind of data set: Laser-induced choroidal neovascularization (CNV) rabbit model, fluorescein angiography, retinal fluorescence intensity. The class given is in vivo, Chinchilla rabbit. As to conditions: for Fluorescence intensity (% of control group): rabbit CNV, instillation 300 μg/eye 1/day, day 7 (G6, G7). The text has this:
After obtaining 50 male Chinchilla rabbits weighing about 2.5-3.0 kg from DREAMBIO, their health status was checked during a 7-day acclimatization period, and healthy animals were used in the test.
After the acclimatization period, 42 healthy rabbits were selected and a mydriatic agent (MIDRIACIL™ 1% eye drop) was instilled into the right eye. After anesthetizing the animals, laser (ELITE, LUMENIS, USA) was irradiated under the condition of 532 nm, power 150 mW and duration 0.1 sec, and 6 spots were made in about 6 o'clock direction around the optic nerve.
After dividing the test animals into a total of 7 groups, G1 to G7, administration of the test substance was started on the day of the CNV induction using laser with the concentrations described in Table 2. In Table 2, EYLEA™ (Aflibercept) was used as a positive control substance. For intravitreal injection, 40 μL of the positive control substance (EYLEA™) was injected intravitreally into the right eye of the animal in the anesthetized state using a syringe equipped with a 31-gauge needle on the day of the CNV induction. For instillation, after the animal was taken out of the cage and corrected naturally by an assistant, 200 μL of the test substance was instilled into the center of the cornea of the right eye by using a pipette. In the case of “a)”, the instillation was divided into 4 times and each administration was spaced by 5 minutes.
Before the administration of the test substance (0) and on 7, 14, 28, 42 and 56 days after the administration, a mydriatic agent (MIDRIACIL™ 1% eye drop) was instilled into the right of the animal. Then, after anesthetizing the animal and injecting about 1 mL of a 2% fluorescein sodium salt solution via the ear vein, images were taken within about 2 minutes using a fundus camera (TRC-50IX, Topcon, Japan).
Retinal CNV and drug efficacy were confirmed using the retinal fluorescein fundus images. The fluorescein intensity of the irradiation area was analyzed using the ImageJ software (NIH, Bethesda, MD).
For the results of this test, the significance between the test groups was tested using parametric one-way ANOVA assuming the normality of the data. When significance was recognized, a post hoc test was performed using Dunnett's multiple comparison test. Statistical analysis was performed using PRISM 7.04 (GraphPad Software Inc., San Diego, CA, USA), and p<0.05 was considered statically significant.
The test substance of the example or the comparative example was dropped onto the eye of a rabbit wherein choroidal neovascularization (CNV) was induced by laser irradiation, for 7 days, 300 μg per each administration. On day 7 after the start of the test substance administration, the eye was imaged with a fundus camera to compare the effect of the test substance on intraocular vascular leakage and the fluorescence intensity of the retina was analyzed. […] Table 3 compares the relative fluorescence intensity (% of control group) of the irradiation area determined by analyzing the retinal fluorescein angiographic images of the control group (G1), the test group (G6) and the comparison group (G7).
For a rabbit wherein choroidal neovascularization (CNV) was induced by laser irradiation, EYLEA™ was intravitreally injected as a positive control, the eye drop of the example was administered by dropping onto the eye or EYLEA™ and the eye drop of the example were co-administered. […]

The subject of data set [3] is human endothelial cells (HUVECs). The data set is described as follows: Cell viability test (CELLTITER-GLO luminescent assay) in HUVECs. Format: cell-based. As to conditions: various concentrations, 48 hours, FIG. 1A. The procedure: as §1, with “The two media were combined and used after passing through a 0.22-μm filter. All the cells were cultured in a cell incubator under the condition of 37° C. and 5% CO2.” left out
HUVECs were inoculated into a 96-well plate with a transparent black bottom at 5,000 cells per well, incubated overnight, and then treated with a test substances (compound of Example (1) (CGK012) or decursin of Comparative Example (1)) at various concentrations together with a medium (total volume per well: 100 μL). After 48 hours, cell viability was measured using a CELLTITER-GLO® luminescent cell viability assay kit (Promega, G7572) according to the manufacturer's instructions. […] After mixing in an orbital shaker for 2 minutes for cell lysis, stabilization was induced at room temperature for 10 minutes, and then luminescence was measured. […]
A general note: ATP-based viability assays read luminescence as a measure of living cells.

The test system of the next data set is ICR mice. The data set is described as follows: Acute toxicity, oral, fatality rate at 24 hours. As to conditions: 2.0 g/kg, n=5. The class given is in vivo. The procedure:
This experiment was conducted to investigate the acute (within 24 hours) toxicity of the compound of the present disclosure and determine its fatality rate when consumed in an excess amount in a short period of time. ICR mice were assigned to a control group (n=5) and a test group (n=5). Nothing was administered to the control group and the compound of Example (1) was orally administered to the test group at a concentration of 2.0 g/kg (about 50 times the amount used in general animal experiments).

The test system of another data set is C57BL/6J mice. Kind of data set: Organ and tissue toxicity (blood GPT, BUN; liver and kidney histology). The class given is in vivo. The procedure:
In order to investigate the effect on the organs (tissues) of C57BL/6J mice, blood was taken from the animals of a test group to which the compound of Example (1) was administered and a control group to which only a solvent was administered 8 weeks after the administration, and blood levels of GPT (glutamate-pyruvate transferase) and BUN (blood urea nitrogen) were measured using SELECT™ E (Vital Scientific NV, Netherlands). […] In addition, the liver and kidney were taken from each animal and subjected to histological observation under an optical microscope through a conventional tissue section preparation process.

[4] abbreviates: G5: CGK012 administered alone, FIG. 6B, 6C.

For `CC(C)=CC(=O)O[C@H]1Cc2cc3ccc(=O)oc3cc2OC1(C)C` [decursin, reference compound], in data set [1], the “level of VEGF in ARPE-19 cells” value is recorded as “did not show significant effect on the level of VEGF”. Further, the “Fluorescence intensity (% of control group)” value in data set [2] is given as 95.66 ± 10.80 % of control group. The “cell viability of human endothelial cells (HUVECs)” value in data set [3] was “did not significantly induce the apoptosis of the HUVECs even at high concentrations”.
As for “Aflibercept [EYLEA™, reference compound]”, the “relative fluorescence intensity (% of control group)” value is on record as 78.474 ± 8.452 % of control group in data set [2] (G2: EYLEA intravitreal 1600 μg/eye 1/3 weeks, Day 7); 70.022 ± 7.008 % of control group in data set [2] (G2: EYLEA intravitreal 1600 μg/eye 1/3 weeks, Day 14); 69.348 ± 5.013 % of control group in data set [2] (G2: EYLEA intravitreal 1600 μg/eye 1/3 weeks, Day 28); 74.154 ± 9.129 % of control group in data set [2] (G2: EYLEA intravitreal 1600 μg/eye 1/3 weeks, Day 42); 84.087 ± 9.079 % of control group in data set [2] (G2: EYLEA intravitreal 1600 μg/eye 1/3 weeks, Day 56).
Take `CC1(C)Oc2cc3oc(=O)ccc3cc2C[C@@H]1OC(=O)NC1CCCC1` [CGK012, (7S)-(+)-cyclopentylcarbarmic acid 8,8-dimethyl-2-oxo-6,7-dihydro-2H,8H-pyrano[3,2-g]chromen-7-yl-ester]: in the data set with ICR mice, the “fatality rate 24 hours after the administration” value was “all the animals of the control group and the test group survived”. For the same compound, the “blood level of BUN (blood urea nitrogen) vs control group” value with C57BL/6J mice (8 weeks after the administration, kidney toxicity) is recorded as “no significant difference was observed”. For the same compound, the “blood level of GPT (glutamate-pyruvate transferase) vs control group” value in the data set on C57BL/6J mice (8 weeks after the administration, liver toxicity) is listed as “no significant difference was observed”. The “histological observation of liver and kidney” value in the data set on C57BL/6J mice (optical microscope) was “No unusual abnormality was observed”. Further, the “level of VEGF in ARPE-19 cells” value in data set [1] was “remarkably decreased VEGF”. In addition, in data set [2] (setting [4]), the “difference of retinal fluorescence intensity from the positive control EYLEA administration group (G2)” value is recorded as “no statistically significant difference”. In addition, the “level of retinal fluorescence intensity as compared to the induced control group (G1)” value in data set [2] (setting [4]) is on record as “significantly low”. The “relative fluorescence intensity (% of control group)” value in data set [2] (G5: CGK012 instillation 300 μg/eye 2/day, Day 7) is given as 80.877 ± 8.905 % of control group; in data set [2] (G5: CGK012 instillation 300 μg/eye 2/day, Day 14), 79.116 ± 7.972 % of control group; in data set [2] (G5: CGK012 instillation 300 μg/eye 2/day, Day 28), 79.152 ± 6.642 % of control group; in data set [2] (G5: CGK012 instillation 300 μg/eye 2/day, Day 42) it was 79.137 ± 6.355 % of control group; in data set [2] (G5: CGK012 instillation 300 μg/eye 2/day, Day 56) it was 81.041 ± 10.391 % of control group. Besides, the “duration of the effect of inhibiting choroidal neovascularization” value in data set [2] (G5: single administration of CGK012 (eye drop, without EYLEA)) was found to be 8 weeks. Further, in data set [2], the “Fluorescence intensity (% of control group)” value is 75.52 ± 3.93 % of control group. Further, the “cell viability of human endothelial cells (HUVECs)” value in data set [3] was “significantly inhibited the survival of the HUVECs at high concentrations”.
